Laboratory results from PubChem BioAssay AID2060511 (Molecular Pharmacology Branch, DTP, NCI, 2025).

System: 422866-222-R5-J1-PDC spheroids with HUVEC/MSC, viability
Experiment: Anticancer human tumor 422866-222-R5-J1-PDC patient-derived pancreatic adenocarcinoma cell line growth inhibition [GQUAD]
Conditions: for IC50: curve of first compound; for viability, T/C: stronger effect = lower value
Method in brief: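 Tumor cells were grown as complex spheroids with HUVEC endothelial cells and mesenchymal stem cells as stroma. G-quadruplex stabilizers were combined with targeted agents over half-log dilutions from near the clinical Cmax, or from 10 microM.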

[1] = second compound 0.0316 µM, first compound 0.0316 µM
[2] = second compound 0.0316 µM, first compound 0.1 µM
[3] = second compound 0.0316 µM, first compound 0.316 µM
[4] = second compound 0.0316 µM, first compound 1 µM
[5] = second compound 0.0316 µM, first compound 3.16 µM
[6] = second compound 0.0316 µM, first compound 10 µM
[7] = second compound 0.1 µM, first compound 0.0316 µM
[8] = second compound 0.1 µM, first compound 0.1 µM
[9] = second compound 0.1 µM, first compound 0.316 µM
[10] = second compound 0.1 µM, first compound 1 µM
[11] = second compound 0.1 µM, first compound 3.16 µM
[12] = second compound 0.1 µM, first compound 10 µM
[13] = second compound 0.316 µM, first compound 0.0316 µM
[14] = second compound 0.316 µM, first compound 0.1 µM
[15] = second compound 0.316 µM, first compound 0.316 µM
[16] = second compound 0.316 µM, first compound 1 µM
[17] = second compound 0.316 µM, first compound 3.16 µM
[18] = second compound 0.316 µM, first compound 10 µM
[19] = second compound 1 µM, first compound 0.0316 µM
[20] = second compound 1 µM, first compound 0.1 µM
[21] = second compound 1 µM, first compound 0.316 µM
[22] = second compound 1 µM, first compound 1 µM
[23] = second compound 1 µM, first compound 3.16 µM
[24] = second compound 1 µM, first compound 10 µM
[25] = second compound 3.16 µM, first compound 0.0316 µM
[26] = second compound 3.16 µM, first compound 0.1 µM
[27] = second compound 3.16 µM, first compound 0.316 µM
[28] = second compound 3.16 µM, first compound 1 µM
[29] = second compound 3.16 µM, first compound 3.16 µM
[30] = second compound 3.16 µM, first compound 10 µM
[31] = second compound 10 µM, first compound 0.0316 µM
[32] = second compound 10 µM, first compound 0.1 µM
[33] = second compound 10 µM, first compound 0.316 µM
[34] = second compound 10 µM, first compound 1 µM
[35] = second compound 10 µM, first compound 3.16 µM
[36] = second compound 10 µM, first compound 10 µM
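Also: spheroids exposed to compounds for seven days before reading.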
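For viability, T/C in this document: percent viability relative to DMSO vehicle control taken as 100%.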

## Cc1cccc(N(C)C(=O)C2C(O)CCN2c2nc(C)cc(C(F)(F)F)c2C#N)c1 (stereo unspecified) + Cc1cnc(CNC(=O)c2c(=O)c3ccc(N4CCCN(C)CC4)nc3n3c2sc2ccccc23)cn1
Second compound 0.0316 µM
  IC50: > 10 µM
Second compound 0.1 µM
  IC50: > 10 µM
Second compound 0.316 µM
  IC50: > 10 µM
Second compound 1 µM
  IC50: > 10 µM
Second compound 3.16 µM
  IC50: > 10 µM
Second compound 10 µM
  IC50: > 10 µM
[1]
  viability, T/C: 95%
[2]
  viability, T/C: 82.2%
[3]
  viability, T/C: 83.9%
[4]
  viability, T/C: 92.8%
[5]
  viability, T/C: 90.5%
[6]
  viability, T/C: 88.7%
[7]
  viability, T/C: 95.9%
[8]
  viability, T/C: 86.3%
[9]
  viability, T/C: 86.8%
[10]
  viability, T/C: 83.7%
[11]
  viability, T/C: 102%
[12]
  viability, T/C: 90.9%
[13]
  viability, T/C: 85.8%
[14]
  viability, T/C: 90.5%
[15]
  viability, T/C: 98.9%
[16]
  viability, T/C: 83.7%
[17]
  viability, T/C: 85.3%
[18]
  viability, T/C: 85.5%
[19]
  viability, T/C: 82%
[20]
  viability, T/C: 85.8%
[21]
  viability, T/C: 86.1%
[22]
  viability, T/C: 79.7%
[23]
  viability, T/C: 94.1%
[24]
  viability, T/C: 91.6%
[25]
  viability, T/C: 73.7%
[26]
  viability, T/C: 80%
[27]
  viability, T/C: 86.1%
[28]
  viability, T/C: 79.7%
[29]
  viability, T/C: 96.5%
[30]
  viability, T/C: 78.8%
[31]
  viability, T/C: 75.3%
[32]
  viability, T/C: 75.6%
[33]
  viability, T/C: 75%
[34]
  viability, T/C: 86.5%
[35]
  viability, T/C: 89%
[36]
  viability, T/C: 77.7%

## Cn1ncnc1[C@H]1c2n[nH]c(=O)c3cc(F)cc(c23)N[C@@H]1c1ccc(F)cc1 + Cc1cnc(CNC(=O)c2c(=O)c3ccc(N4CCCN(C)CC4)nc3n3c2sc2ccccc23)cn1
Second compound 0.0316 µM
  IC50: > 0.316 µM
Second compound 0.1 µM
  IC50: > 0.316 µM
Second compound 0.316 µM
  IC50: > 0.316 µM
Second compound 1 µM
  IC50: > 0.316 µM
Second compound 3.16 µM
  IC50: > 0.316 µM
Second compound 10 µM
  IC50: > 0.316 µM
Second compound 0.0316 µM, first compound 0.000999 µM
  viability, T/C: 94.9%
Second compound 0.0316 µM, first compound 0.00316 µM
  viability, T/C: 85%
Second compound 0.0316 µM, first compound 0.00999 µM
  viability, T/C: 93.8%
[1]
  viability, T/C: 81.2%
Second compound 0.0316 µM, first compound 0.0999 µM
  viability, T/C: 70.9%
[3]
  viability, T/C: 69.4%
Second compound 0.1 µM, first compound 0.000999 µM
  viability, T/C: 89.1%
Second compound 0.1 µM, first compound 0.00316 µM
  viability, T/C: 91.2%
Second compound 0.1 µM, first compound 0.00999 µM
  viability, T/C: 81.1%
[7]
  viability, T/C: 79.3%
Second compound 0.1 µM, first compound 0.0999 µM
  viability, T/C: 78.2%
[9]
  viability, T/C: 71.8%
Second compound 0.316 µM, first compound 0.000999 µM
  viability, T/C: 91.6%
Second compound 0.316 µM, first compound 0.00316 µM
  viability, T/C: 78.6%
Second compound 0.316 µM, first compound 0.00999 µM
  viability, T/C: 87.4%
[13]
  viability, T/C: 84%
Second compound 0.316 µM, first compound 0.0999 µM
  viability, T/C: 73.1%
[15]
  viability, T/C: 83.9%
Second compound 1 µM, first compound 0.000999 µM
  viability, T/C: 75.8%
Second compound 1 µM, first compound 0.00316 µM
  viability, T/C: 77.4%
Second compound 1 µM, first compound 0.00999 µM
  viability, T/C: 80.7%
[19]
  viability, T/C: 80.5%
Second compound 1 µM, first compound 0.0999 µM
  viability, T/C: 88.1%
[21]
  viability, T/C: 74.9%
Second compound 3.16 µM, first compound 0.000999 µM
  viability, T/C: 86.3%
Second compound 3.16 µM, first compound 0.00316 µM
  viability, T/C: 71.5%
Second compound 3.16 µM, first compound 0.00999 µM
  viability, T/C: 82%
[25]
  viability, T/C: 70.7%
Second compound 3.16 µM, first compound 0.0999 µM
  viability, T/C: 78.4%
[27]
  viability, T/C: 71%
Second compound 10 µM, first compound 0.000999 µM
  viability, T/C: 75.2%
Second compound 10 µM, first compound 0.00316 µM
  viability, T/C: 78.2%
Second compound 10 µM, first compound 0.00999 µM
  viability, T/C: 77.3%
[31]
  viability, T/C: 77.9%
Second compound 10 µM, first compound 0.0999 µM
  viability, T/C: 84%
[33]
  viability, T/C: 66.9%

## O=C(c1cc(Cc2n[nH]c(=O)c3ccccc23)ccc1F)N1CCN(C(=O)C2CC2)CC1 + Cc1cnc(CNC(=O)c2c(=O)c3ccc(N4CCCN(C)CC4)nc3n3c2sc2ccccc23)cn1
Second compound 0.0316 µM
  IC50: > 10 µM
Second compound 0.1 µM
  IC50: > 10 µM
Second compound 0.316 µM
  IC50: > 10 µM
Second compound 1 µM
  IC50: > 10 µM
Second compound 3.16 µM
  IC50: > 10 µM
Second compound 10 µM
  IC50: > 10 µM
[1]
  viability, T/C: 108%
[2]
  viability, T/C: 89%
[3]
  viability, T/C: 84.8%
[4]
  viability, T/C: 83.4%
[5]
  viability, T/C: 80.5%
[6]
  viability, T/C: 65.2%
[7]
  viability, T/C: 91.9%
[8]
  viability, T/C: 84.4%
[9]
  viability, T/C: 80.5%
[10]
  viability, T/C: 83.7%
[11]
  viability, T/C: 80.2%
[12]
  viability, T/C: 77.6%
[13]
  viability, T/C: 74%
[14]
  viability, T/C: 77.9%
[15]
  viability, T/C: 78.8%
[16]
  viability, T/C: 84%
[17]
  viability, T/C: 85.2%
[18]
  viability, T/C: 77.1%
[19]
  viability, T/C: 76.2%
[20]
  viability, T/C: 76.6%
[21]
  viability, T/C: 84%
[22]
  viability, T/C: 76.5%
[23]
  viability, T/C: 80.3%
[24]
  viability, T/C: 70.4%
[25]
  viability, T/C: 83.3%
[26]
  viability, T/C: 73.7%
[27]
  viability, T/C: 83.2%
[28]
  viability, T/C: 91.2%
[29]
  viability, T/C: 83.6%
[30]
  viability, T/C: 76.5%
[31]
  viability, T/C: 70%
[32]
  viability, T/C: 79.4%
[33]
  viability, T/C: 77.8%
[34]
  viability, T/C: 72.7%
[35]
  viability, T/C: 89.5%
[36]
  viability, T/C: 69.2%
